Test results taken from patent US9975869B2 (Sphaera Pharma Pvt. Ltd., priority 2013, dated 2018).

test system: AMPK; experiment: AMPK activation potential, cell based ELISA (Phospho-AMPKα Thr172) in Hep G2 cells; conditions: 10 nm concentration; Hep G2 liver cells; % activity with DMSO control as 100%; 30 min incubation for Epicatechin analogs
Experimental: Testing of Compounds for Their AMPK Activation Potential
AMPK activation potential of the compounds was evaluated using cell based ELISA. Hepatoma (Hep G2) liver cells were maintained in a T 75 culture flask-containing 25 mM DMEM+10% fetal calf serum. The cells were maintained in a T 75 culture flask-containing medium (DMEM+10% fetal calf serum). On reaching a confluence of 70 to 80%, the cells were seeded in a 96 well plate at a density of 40,000 cells per well in 25 mM DMEM+10% FCS medium. The plates were then incubated at 37° C. with 5% CO2 for 24 hours. Various concentrations of drugs were prepared in DMSO and diluted to required concentration with the medium and incubated at 37° C. with 5% CO2 for 30 min and 1 h for Epicatechin analogs and 11-BHP analogs respectively. Metformin was used as positive control. Cells were fixed with 4% formaldehyde for 30 minutes at room temperature and washed three times with PBS containing 0.1% Triton X-100. Endogenous peroxidase was quenched with 1% H2O2 in PBS-T (0.1% Tween 20) for 30 minutes and washed three times in PBS-T. Cells were blocked with 1% BSA in PBS-T for 1 hour. The cells were incubated with 1:1000 dilution primary antibody (Phospho-AMPKα (Thr172) Rabbit mAb, Cell Signaling in PBS-T containing 5% BSA at 4° C. overnight. The cells were then washed three times with PBS-T for 5 minutes and incubated with 1:1000 dilution secondary antibody (Anti-rabbit IgG, HRP-linked Antibody, Cell Signaling) in PBS-T with 1% BSA for 1 hour at RT. Cells were washed three times with PBS-T for 5 minutes The cells were incubated with 100 μl TMB substrate solution for 30 minutes and the reaction was stopped with 100 μl of 2N H2SO4. Then the plate was read at 450 nm using ELISA plate reader and absorbance recorded. % activity was calculated using DMSO control as 100%. All compounds of the present invention, as exemplified and encompassed are found to be active.

Compound | % pAMPK(at 10 nm) [%]
CC(C)(C)COC(=O)Oc1ccc([C@H]2Oc3cc(O)cc(O)c3C[C@H]2O)cc1OC(=O)OCC(C)(C)C [Compound 1072, dineopentyl (4-((2R,3R)-3,5,7-trihydroxychroman-2-yl)-1,2-phenylene) bis(carbonate)] | 99
Oc1cc(O)c2c(c1)O[C@H](c1ccc(O)c(O)c1F)[C@H](O)C2 (racemic) [Compound 1032, Cis (±) 2-(2-fluoro-3,4-dihydroxyphenyl)chroman-3,5,7-triol] | 104
Oc1ccc2c(c1)OC(c1ccc(F)c(O)c1)[C@H](O)C2 (stereo in doubt) [Compound 1029, 2-(4-fluoro-3-hydroxyphenyl)chromane-3,7-diol] | 93
COc1cc(C2Oc3cc(O)ccc3C[C@H]2O)ccc1F (stereo in doubt) [Compound 1028, 2-(4-fluoro-3-methoxyphenyl)chromane-3,7-diol] | 101
Oc1ccc([C@H]2Oc3cc(O)ccc3C[C@H]2O)cc1 (racemic) [Compound 1004, Cis (±) 2-(4-hydroxyphenyl)chroman-3,7-diol] | 114
CC(C)NC(=O)O[C@@H]1Cc2c(O)cc(O)cc2O[C@@H]1c1ccc(O)c(O)c1 [Compound 1046, (2R,3R)-2-(3,4-dihydroxyphenyl)-5,7-dihydroxychroman-3-yl isopropylcarbamate] | 101
COC(=O)Oc1cc(OC(=O)OC)c2c(c1)O[C@H](c1ccc(O)c(O)c1)[C@H](O)C2 [Compound 1058, (2R,3R)-2-(3,4-dihydroxyphenyl)-3-hydroxychromane-5,7-diyl dimethyl bis(carbonate)] | 117
O=C(NCc1ccccc1)Oc1cc(OC(=O)NCc2ccccc2)c2c(c1)O[C@H](c1ccc(OC(=O)NCc3ccccc3)c(OC(=O)NCc3ccccc3)c1)[C@H](O)C2 [Compound 1051, 4-((2R,3R)-5,7-bis((benzylcarbamoyl)oxy)-3-hydroxychroman-2-yl)-1,2-phenylene bis(benzylcarbamate)] | 85
Oc1cccc([C@H]2Oc3cccc(O)c3C[C@H]2O)c1 (racemic) [Compound 1005, Cis (±) 2-(3-hydroxyphenyl)chroman-3,5-diol] | 102
Oc1ccc([C@H]2Oc3cccc(O)c3C[C@H]2O)cc1 (racemic) [Compound 1006, Cis (±) 2-(4-hydroxyphenyl)chroman-3,5-diol] | 103
Cc1c([C@H]2Oc3cc(O)cc(O)c3C[C@H]2O)ccc(O)c1O (racemic) [Compound 1031, Cis (±) 2-(3,4-dihydroxy-2-methylphenyl)chroman-3,5,7-triol] | 101
